The target of the assay is NLRP3 (Homo sapiens, UniProt Q96P20). The assay is described as follows: THP-1 cells pyroptosis assay. Also on record: Seed THP-1 cells (25,000 cells/well) containing 1.0 μg/ml LPS; host or cells: THP-1 cells, LPS-primed, nigericin-stimulated. In kind it is cell-based. Conditions: 1.0 μg/ml LPS, nigericin 5 μM, resazurin readout. The text has this:
It is well established that the activation of NLRP3 leads to cell pyroptosis and this feature plays an important part in the manifestation of clinical disease (Yan-gang Liu et al., Cell Death & Disease, 2017, 8(2), e2579; Alexander Wree et al., Hepatology, 2014, 59(3), 898-910; Alex Baldwin et al., Journal of Medicinal Chemistry, 2016, 59(5), 1691-1710; Ema Ozaki et al., Journal of Inflammation Research, 2015, 8, 15-27; Zhen Xie & Gang Zhao, Neuroimmunology Neuroinflammation, 2014, 1(2), 60-65; Mattia Cocco et al., Journal of Medicinal Chemistry, 2014, 57(24), 10366-10382; T. Satoh et al., Cell Death & Disease, 2013, 4, e644). Therefore, it is anticipated that inhibitors of NLRP3 will block pyroptosis, as well as the release of pro-inflammatory cytokines (e.g. IL-1β) from the cell.
THP-1 cells (ATCC #TIB-202) were grown in RPMI containing L-glutamine (Gibco #11835) supplemented with 1 mM sodium pyruvate (Sigma #S8636) and penicillin (100 units/ml)/streptomycin (0.1 mg/ml) (Sigma #P4333) in 10% Fetal Bovine Serum (FBS) (Sigma #F0804). The cells were routinely passaged and grown to confluency (˜10^6 cells/ml). On the day of the experiment, THP-1 cells were harvested and resuspended into RPMI medium (without FBS). The cells were then counted and viability (>90%) checked by Trypan blue (Sigma #T8154). Appropriate dilutions were made to give a concentration of 625,000 cells/ml. To this diluted cell solution was added LPS (Sigma #L4524) to give a 1 μg/ml Final Assay Concentration (FAC). 40 μl of the final preparation was aliquoted into each well of a 96-well plate. The plate thus prepared was used for compound screening.
The following method step-by-step assay was followed for compound screening. • 1. Seed THP-1 cells (25,000 cells/well) containing 1.0 μg/ml LPS in 40 μl of RPMI medium (without FBS) in 96-well, black walled, clear bottom cell culture plates coated with poly-D-lysine (VWR #734-0317) • 2. Add […] compound (8 points half-log dilution, with 10 μM top dose) or vehicle (DMSO 0.1% FAC) to the appropriate wells • 3. Incubate for 3 hrs at 37° C. in 5% CO2 • 4. Add 5 μl nigericin (Sigma #N7143) (FAC 5 μM) to all wells • 5. Incubate for 1 hr at 37° C. and 5% CO2 • 6. At the end of the incubation period, spin plates at 300×g for 3 mins and remove supernatant • 7. Then add 50 μl of resazurin (Sigma #R7017) (FAC 100 μM resazurin in RPMI medium without FBS) and incubate plates for a further 1-2 hrs at 37° C. and 5% CO2 • 8. Plates were read in an Envision reader at Ex 560 nm and Em 590 nm • 9. IC50 data is fitted to a non-linear regression equation (log inhibitor vs response-variable slope 4-parameters)
Chain of NLRP3 (Q96P20 whole entry): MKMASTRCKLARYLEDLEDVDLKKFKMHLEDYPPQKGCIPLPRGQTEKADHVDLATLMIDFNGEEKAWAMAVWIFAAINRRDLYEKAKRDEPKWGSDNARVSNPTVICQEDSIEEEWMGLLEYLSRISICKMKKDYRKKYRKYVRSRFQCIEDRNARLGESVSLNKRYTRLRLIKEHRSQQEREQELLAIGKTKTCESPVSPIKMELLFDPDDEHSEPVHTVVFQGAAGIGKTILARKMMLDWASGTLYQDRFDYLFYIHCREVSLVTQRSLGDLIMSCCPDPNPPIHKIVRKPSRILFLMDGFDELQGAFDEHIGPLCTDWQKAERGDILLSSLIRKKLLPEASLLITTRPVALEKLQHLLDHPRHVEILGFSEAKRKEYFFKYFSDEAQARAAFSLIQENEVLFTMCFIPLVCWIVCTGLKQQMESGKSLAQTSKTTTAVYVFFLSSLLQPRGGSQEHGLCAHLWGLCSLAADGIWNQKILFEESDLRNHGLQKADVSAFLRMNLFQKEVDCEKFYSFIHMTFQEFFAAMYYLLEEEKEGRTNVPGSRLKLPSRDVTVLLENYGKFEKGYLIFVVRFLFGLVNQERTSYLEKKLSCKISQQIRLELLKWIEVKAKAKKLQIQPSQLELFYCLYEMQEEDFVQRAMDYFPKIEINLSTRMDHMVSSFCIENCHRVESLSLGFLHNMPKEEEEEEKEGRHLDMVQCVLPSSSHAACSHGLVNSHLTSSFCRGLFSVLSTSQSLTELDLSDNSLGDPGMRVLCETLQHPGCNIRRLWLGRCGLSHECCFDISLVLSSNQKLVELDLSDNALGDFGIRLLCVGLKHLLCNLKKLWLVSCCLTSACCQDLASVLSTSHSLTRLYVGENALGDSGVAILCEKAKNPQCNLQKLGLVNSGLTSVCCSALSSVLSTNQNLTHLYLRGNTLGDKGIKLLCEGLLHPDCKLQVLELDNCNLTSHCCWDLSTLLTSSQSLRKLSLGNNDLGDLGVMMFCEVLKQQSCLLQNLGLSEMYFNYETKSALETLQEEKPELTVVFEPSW
On to `CC(=O)N1CC(n2ccc(S(=O)(=O)NC(=O)Nc3c4c(cc5c3CCC5)CCC4)n2)C1` [Example 3, 1-(1-Acetylazetidin-3-yl)-N-((1,2,3,5,6,7-hexahydro-s-indacen-4-yl)carbamoyl)-1H-pyrazole-3-sulfonamide], for which the IC50 was 0.64 to 2.56 µM.

For `CN1CCn2nc(S(=O)(=O)NC(=O)Nc3c4c(cc5c3CCC5)CCC4)cc2C1=O` [Example 4, N-((1,2,3,5,6,7-Hexahydro-s-indacen-4-yl)carbamoyl)-5-methyl-4-oxo-4,5,6,7-tetrahydropyrazolo[1,5-a]pyrazine-2-sulfonamide], the IC50 is 2.56 to 10 µM.

For `CC(=O)N1CCC(n2ccc(S(=O)(=O)NC(=O)Nc3c4c(cc5c3CCC5)CCC4)n2)CC1` [Example 5, 1-(1-Acetylpiperidin-4-yl)-N-((1,2,3,5,6,7-hexahydro-s-indacen-4-yl)carbamoyl)-1H-pyrazole-3-sulfonamide], the IC50 lay in the range of 2.56 to 10 µM.

Take `CN(C)CCCN(C)C(=O)c1cc(S(=O)(=O)NC(=O)Nc2c3c(cc4c2CCC4)CCC3)nn1C` [Example 6, N-(3-(Dimethylamino)propyl)-3-(N-((1,2,3,5,6,7-hexahydro-s-indacen-4-yl)carbamoyl)sulfamoyl)-N,1-dimethyl-1H-pyrazole-5-carboxamide]: the IC50 was 2.56 to 10 µM.

Consider `CC(C)c1cccc(C(C)C)c1NC(=O)NS(=O)(=O)c1cc(C(=O)N(C)C2CCC2)n(C)n1` [Example 8, N-Cyclobutyl-3-(N-((2,6-diisopropylphenyl)carbamoyl)sulfamoyl)-N,1-dimethyl-1H-pyrazole-5-carboxamide], for which the IC50 was in the range of 0.64 to 2.56 µM.

For `CN(CCC#N)C(=O)c1cc(S(=O)(=O)NC(=O)Nc2c3c(cc4c2CCC4)CCC3)nn1C` [Example 9, N-(2-Cyanoethyl)-3-(N-((1,2,3,5,6,7-hexahydro-s-indacen-4-yl)carbamoyl)sulfamoyl)-N,1-dimethyl-1H-pyrazole-5-carboxamide], the IC50 fell in the range of 0.16 to 0.64 µM.

As for `CN(C)CCN(C)C(=O)c1cc(S(=O)(=O)NC(=O)Nc2c3c(cc4c2CCC4)CCC3)nn1C` [Example 10, N-(2-(Dimethylamino)ethyl)-3-(N-((1,2,3,5,6,7-hexahydro-s-indacen-4-yl)carbamoyl)sulfamoyl)-N,1-dimethyl-1H-pyrazole-5-carboxamide], the IC50 was 0.64 to 2.56 µM.

In the case of `CN(C(=O)c1cc(S(=O)(=O)NC(=O)Nc2c3c(cc4c2CCC4)CCC3)nn1C)C1CCCC1` [Example 11, N-Cyclopentyl-3-(N-((1,2,3,5,6,7-hexahydro-s-indacen-4-yl)carbamoyl)sulfamoyl)-N,1-dimethyl-1H-pyrazole-5-carboxamide], the IC50 was in the range of 0.64 to 2.56 µM.

For the compound `CC(=O)N(C)CCN(C)C(=O)c1cc(S(=O)(=O)NC(=O)Nc2c3c(cc4c2CCC4)CCC3)nn1C` [Example 12, 3-(N-((1,2,3,5,6,7-Hexahydro-s-indacen-4-yl)carbamoyl)sulfamoyl)-N,1-dimethyl-N-(2-(N-methylacetamido)ethyl)-1H-pyrazole-5-carboxamide], the IC50 fell in the range of 2.56 to 10 µM.

In turn, `CC(=O)NCCN(C)C(=O)c1cc(S(=O)(=O)NC(=O)Nc2c3c(cc4c2CCC4)CCC3)nn1C` [Example 13, N-(2-Acetamidoethyl)-3-(N-((1,2,3,5,6,7-hexahydro-s-indacen-4-yl)carbamoyl)sulfamoyl)-N,1-dimethyl-1H-pyrazole-5-carboxamide] had an IC50 of 2.56 to 10 µM.

Regarding `CN(C(=O)c1cc(S(=O)(=O)NC(=O)Nc2c3c(cc4c2CCC4)CCC3)nn1C)C1CCOCC1` [Example 14, 3-(N-((1,2,3,5,6,7-Hexahydro-s-indacen-4-yl)carbamoyl)sulfamoyl)-N,1-dimethyl-N-(tetrahydro-2H-pyran-4-yl)-1H-pyrazole-5-carboxamide], the 50% inhibitory concentration (IC50) is 2.56 to 10 µM.

On to `CN(C(=O)c1cc(S(=O)(=O)NC(=O)Nc2c3c(cc4c2CCC4)CCC3)nn1C)C1COC1` [Example 17, 3-(N-((1,2,3,5,6,7-Hexahydro-s-indacen-4-yl)carbamoyl)sulfamoyl)-N,1-dimethyl-N-(oxetan-3-yl)-1H-pyrazole-5-carboxamide], for which the IC50 lay in the range of 0.64 to 2.56 µM.

`CN(CC(O)CO)C(=O)c1cc(S(=O)(=O)NC(=O)Nc2c3c(cc4c2CCC4)CCC3)nn1C` (stereo not drawn) [Example 19, N-(2,3-Dihydroxypropyl)-3-(N-((1,2,3,5,6,7-hexahydro-s-indacen-4-yl)carbamoyl)sulfamoyl)-N,1-dimethyl-1H-pyrazole-5-carboxamide]: the IC50 was in the range of 0.64 to 2.56 µM.

The compound `CC(C)c1cccc(C(C)C)c1NC(=O)NS(=O)(=O)c1cc(C(=O)N2CCOCC2)n(C)n1` [Example 21, N-((2,6-Diisopropylphenyl)carbamoyl)-1-methyl-5-(morpholine-4-carbonyl)-1H-pyrazole-3-sulfonamide] registered an IC50 of 0.64 to 2.56 µM.

`COCCN(C)C(=O)c1cc(S(=O)(=O)NC(=O)Nc2c(C(C)C)cccc2C(C)C)nn1C` [Example 22, 3-(N-((2,6-Diisopropylphenyl)carbamoyl)sulfamoyl)-N-(2-methoxyethyl)-N,1-dimethyl-1H-pyrazole-5-carboxamide] had an IC50 of 2.56 to 10 µM.

The compound `COCCN(CCOC)C(=O)c1cc(S(=O)(=O)NC(=O)Nc2c(C(C)C)cccc2C(C)C)nn1C` [Example 23, 3-(N-((2,6-Diisopropylphenyl)carbamoyl)sulfamoyl)-N,N-bis(2-methoxyethyl)-1-methyl-1H-pyrazole-5-carboxamide] gave an IC50 of 2.56 to 10 µM.

`Cn1nc(S(=O)(=O)NC(=O)Nc2c3c(cc4c2CCC4)CCC3)cc1C(=O)N1CCC(O)CC1` [Example 24, N-((1,2,3,5,6,7-Hexahydro-s-indacen-4-yl)carbamoyl)-5-(4-hydroxypiperidine-1-carbonyl)-1-methyl-1H-pyrazole-3-sulfonamide] had an IC50 of 2.56 to 10 µM.

For the compound `COC1CCN(C(=O)c2cc(S(=O)(=O)NC(=O)Nc3c4c(cc5c3CCC5)CCC4)nn2C)C1` (stereo not drawn) [Example 25, N-((1,2,3,5,6,7-Hexahydro-s-indacen-4-yl)carbamoyl)-5-(3-methoxypyrrolidine-1-carbonyl)-1-methyl-1H-pyrazole-3-sulfonamide], the IC50 was in the range of 2.56 to 10 µM.

As for `Cn1nc(S(=O)(=O)NC(=O)Nc2c3c(cc4c2CCC4)CCC3)cc1C(=O)N1CCOCC1` [Example 28, N-((1,2,3,5,6,7-Hexahydro-s-indacen-4-yl)carbamoyl)-1-methyl-5-(morpholine-4-carbonyl)-1H-pyrazole-3-sulfonamide], the IC50 was in the range of 0.64 to 2.56 µM.

Regarding `CC(C)c1cc(F)cc(C(C)C)c1NC(=O)NS(=O)(=O)c1cc(C(=O)N2CCC2)n(C(C)C)n1` [Example 30, 5-(Azetidine-1-carbonyl)-N-((4-fluoro-2,6-diisopropylphenyl)carbamoyl)-1-isopropyl-1H-pyrazole-3-sulfonamide], the IC50 lay in the range of 0.16 to 0.64 µM.

`CC(C)c1ccc(-c2cncnc2)cc1NC(=O)NS(=O)(=O)c1cc(C(=O)N(C)C)n(C)n1` [Example 34, 3-(N-((2-Isopropyl-5-(pyrimidin-5-yl)phenyl)carbamoyl)sulfamoyl)-N,N,1-trimethyl-1H-pyrazole-5-carboxamide] came in with an IC50 of 0.64 to 2.56 µM.

Compound `CC(C)c1ccc(-c2cnn(C)c2)cc1NC(=O)NS(=O)(=O)c1cc(C(=O)N(C)C)n(C)n1` [Example 36, 3-(N-((2-Isopropyl-5-(1-methyl-1H-pyrazol-4-yl)phenyl)carbamoyl)sulfamoyl)-N,N,1-trimethyl-1H-pyrazole-5-carboxamide] came in with a half-inhibitory concentration (IC50) of 0.64 to 2.56 µM.

`CC(C)NC(=O)c1cc(S(=O)(=O)NC(=O)Nc2c(C(C)C)cccc2C(C)C)nn1C` [Example 38, 3-(N-((2,6-Diisopropylphenyl)carbamoyl)sulfamoyl)-N-isopropyl-1-methyl-1H-pyrazole-5-carboxamide]: the IC50 fell in the range of 2.56 to 10 µM.

The compound `CC(C)c1cccc(C(C)C)c1NC(=O)NS(=O)(=O)c1cc(C(=O)N(C)CC#N)n(C)n1` [Example 40, N-(Cyanomethyl)-3-(N-((2,6-diisopropylphenyl)carbamoyl)sulfamoyl)-N,1-dimethyl-1H-pyrazole-5-carboxamide] had an IC50 of 2.56 to 10 µM.

Values taken from patent US20210122739A1, “NOVEL SULFONAMIDE CARBOXAMIDE COMPOUNDS” (Inflazome Limited, priority 2017, published 2021).
